Results taken from patent US20200102264A1, “MARMELIN ANALOGS AND METHODS OF USE IN CANCER TREATMENT” (THE UNIVERSITY OF KANSAS, priority 2014, published 2020).
“Also recorded” adds a separate entry of the source.

Columns and labels:
Type in all cases: cell-based
SW480 colon cancer cells = assay: hexoseaminidase cell proliferation assay, SW480
Excerpt: (§1) Using hexoseaminidase assay, we determined the effect of the compounds on cell proliferation. […]
(§2) Using hexoseaminidase assay, we determined the effect of the compounds on cell proliferation. […] […] […] Overall, the analogs can be used as chemotherapeutic agents against colon and pancreatic cancer.

SW480 cells [1] = assay: colony formation, SW480
HCT116 cells [2] = assay: cell cycle analysis, HCT116; conditions: HCT116, Table 3
[3] = test system: HCT116 colon cancer cells; assay: hexoseaminidase cell proliferation assay, HCT116
Excerpt: as §1, §2

cancer stem cells = assay: colonosphere formation
Procedure: It was also determined the analogs inhibit colonosphere formation from cancer stem cells. […] The columns are 0, 10, 25, and 50 micromolar concentrations of the compounds labeled by rows.
The effect of the compounds on colonosphere formation was determined. […] Overall, the analogs have shown they can be used as chemotherapeutic agents against colon, pancreatic and bladder cancer.

[4] = test system: PanC-1 pancreatic cancer cells; assay: hexoseaminidase cell proliferation assay, PanC-1
Procedure: (§3) Using hexoseaminidase assay, we determined the effect of the compounds on cell proliferation. […] The IC50 value at 48 hours is below 10 μM in all the cancer cell lines.
(§4) Using hexoseaminidase assay, we determined the effect of the compounds on cell proliferation. […] The MRL16 IC50 value at 48 hours is below 0.3 μM in Colon cancer cell lines. […] Overall, the analogs can be used as chemotherapeutic agents against colon and pancreatic cancer.

HCT116 cells [5] = assay: colony formation, HCT116
[6] = test system: MiaPaCa-2 pancreatic cancer cells; assay: hexoseaminidase cell proliferation assay, MiaPaCa-2
Procedure: as §3, §4

SW480 cells [7] = assay: cell cycle analysis, SW480; conditions: SW480, Table 3
Procedure: The analogs were tested to determine the ability induce death of colon cancer cells.

[8] = test system: colon, pancreatic and bladder cancer cells; assay: hexoseaminidase cell proliferation assay, summaries over cell lines; conditions: dose and time dependent
Procedure: Water solubility studies were performed with the CD/analog complexes. […] The observed IC50 value of THBCD at 48 h is below 10 μM in all the colon, pancreatic and bladder cancer cells.
as §3, §4

[9] = Homo sapiens, HCT-116, HCT116, 24 h
[10] = Homo sapiens, HCT-116, HCT116, 48 h
[11] = Homo sapiens, HCT-116, HCT116, 72 h
[12] = Homo sapiens, MIA PaCa-2, MiaPaCa-2, 24 h
[13] = Homo sapiens, MIA PaCa-2, MiaPaCa-2, 48 h
[14] = Homo sapiens, MIA PaCa-2, MiaPaCa-2, 72 h

Compound | IC50 (SW480 colon cancer cells; SW480, 24 h) [µM] | IC50 (SW480 colon cancer cells; SW480, 48 h) [µM] | IC50 (SW480 colon cancer cells; SW480, 72 h) [µM] | G0/G1 (%) (HCT116 cells [2]) | G2M (%) (HCT116 cells [2]) | S (%) (HCT116 cells [2]) | SubG0 Dead Cells (%) (HCT116 cells [2]) | inhibition of cell proliferation (in words) [8] | IC50 (SW480 colon cancer cells; Homo sapiens, SW480, 24 h) [µM] | IC50 (SW480 colon cancer cells; Homo sapiens, SW480, 48 h) [µM] | IC50 (SW480 colon cancer cells; Homo sapiens, SW480, 72 h) [µM] | IC50 [3, 9] [µM] | IC50 [3, 10] [µM] | IC50 [3, 11] [µM] | IC50 ([4]; Homo sapiens, PANC-1, 24 h) [µM] | IC50 ([4]; Homo sapiens, PANC-1, 48 h) [µM] | IC50 ([4]; Homo sapiens, PANC-1, 72 h) [µM] | IC50 [6, 12] [µM] | IC50 [6, 13] [µM] | IC50 [6, 14] [µM] | also measured
O=C(N/N=C/c1ccc(O)c(O)c1)c1cc2ccccc2cc1O [MRL DHB] | > 50 | > 50 | 15 | 40.7 | 10.4 | 13.0 | 34.2 | potent inhibitor of proliferation of pancreatic cancer cells; also recorded: inhibit proliferation |  |  |  |  |  |  |  |  |  |  |  |  | colony formation (SW480 cells [1]): significantly inhibited colony formation; IC50 ([3]; HCT116, 24 h): > 50 µM; IC50 ([3]; HCT116, 48 h): > 50 µM; colonosphere formation (cancer stem cells): significantly inhibited colonosphere formation; IC50 ([4]; PanC-1, 24 h): > 50 µM; IC50 ([4]; PanC-1, 48 h): 15 µM; IC50 ([4]; PanC-1, 48 h, listed as DHB): 10 µM; IC50 ([4]; PanC-1, 72 h): 8 µM; colony formation (HCT116 cells [5]): significantly inhibited colony formation; IC50 ([6]; MiaPaCa-2, 24 h): > 50 µM; IC50 ([6]; MiaPaCa-2, 48 h): 25 µM; IC50 ([6]; MiaPaCa-2, 72 h): 10 µM; IC50 ([6]; MiaPaCa-2, 72 h, listed as DHB): 25 µM; G0/G1 (%) (SW480 cells [7]): 60.7%; G2M (%) (SW480 cells [7]): 18.4%; S (%) (SW480 cells [7]): 14.1%; SubG0 Dead Cells (%) (SW480 cells [7]): 6.1%
C/C(=N\NC(=O)c1cc2ccccc2cc1O)c1ccc2ccccc2c1O [MRL20] | > 2 | 1.2 | 1 |  |  |  |  | potent inhibitor |  |  |  |  |  |  |  |  |  |  |  |  | IC50 ([3]; HCT116, 24 h): > 2 µM; IC50 ([3]; HCT116, 48 h): 0.5 µM; IC50 ([3]; HCT116, 72 h): 0.4 µM; IC50 ([4]; PanC-1, 24 h): > 10 µM; IC50 ([4]; PanC-1, 48 h): 5 µM; IC50 ([4]; PanC-1, 72 h): 1 µM; IC50 ([6]; MiaPaCa-2, 24 h): > 10 µM; IC50 ([6]; MiaPaCa-2, 48 h): 9 µM; IC50 ([6]; MiaPaCa-2, 72 h): 8 µM
C/C(=N\NC(N)=S)c1ccc2ccccc2c1O [MRL23] |  |  |  |  |  |  |  | potent inhibitor | > 10 | > 10 | > 10 | > 10 | > 10 | > 10 | > 10 | > 10 | > 10 | > 10 | 5 | 4 | 
C/C(=N\NC(=O)c1ccc(O)cc1)c1ccc2ccccc2c1O [MRL24] |  |  |  |  |  |  |  | potent inhibitor | > 10 | 10 | 4 | > 10 | 3.5 | 2 | > 10 | 5 | 4 | > 10 | > 10 | 5 | 
OC[C@H]1O[C@@H]2O[C@H]3[C@H](O)[C@@H](O)[C@@H](O[C@H]4[C@H](O)[C@@H](O)[C@@H](O[C@H]5[C@H](O)[C@@H](O)[C@@H](O[C@H]6[C@H](O)[C@@H](O)[C@@H](O[C@H]7[C@H](O)[C@@H](O)[C@@H](O[C@H]8[C@H](O)[C@@H](O)[C@@H](O[C@H]1[C@H](O)[C@H]2O)O[C@@H]8CO)O[C@@H]7CO)O[C@@H]6CO)O[C@@H]5CO)O[C@@H]4CO)O[C@@H]3CO [CD, β-cyclodextrin] |  |  |  | 43.9 | 10.9 | 12.3 | 31.0 |  | > 50 | > 50 | > 50 | > 50 | > 50 | > 50 | > 50 | > 50 | > 50 | > 50 | > 50 | > 50 | G0/G1 (%) (SW480 cells [7]): 61.1%; G2M (%) (SW480 cells [7]): 19.8%; S (%) (SW480 cells [7]): 14.9%; SubG0 Dead Cells (%) (SW480 cells [7]): 3.6%
